Where a name gives a salt, the structure may show the parent alone.
What follows are molecules tested against T1, human recombinant ENPP1 enzymes (Homo sapiens, UniProt P22413) (assay: ENPP1 Enzyme Assay with cGAMP Substrate (AMP-Glo)). Details: human recombinant ENPP1, cGAMP 5 μM, 37° C. 90 minutes, AMP-Glo luminescence; read-out: Enzymatic activity (IC50).
T1 construct: purchased R & D systems
T1 sequence (P22413 1-925): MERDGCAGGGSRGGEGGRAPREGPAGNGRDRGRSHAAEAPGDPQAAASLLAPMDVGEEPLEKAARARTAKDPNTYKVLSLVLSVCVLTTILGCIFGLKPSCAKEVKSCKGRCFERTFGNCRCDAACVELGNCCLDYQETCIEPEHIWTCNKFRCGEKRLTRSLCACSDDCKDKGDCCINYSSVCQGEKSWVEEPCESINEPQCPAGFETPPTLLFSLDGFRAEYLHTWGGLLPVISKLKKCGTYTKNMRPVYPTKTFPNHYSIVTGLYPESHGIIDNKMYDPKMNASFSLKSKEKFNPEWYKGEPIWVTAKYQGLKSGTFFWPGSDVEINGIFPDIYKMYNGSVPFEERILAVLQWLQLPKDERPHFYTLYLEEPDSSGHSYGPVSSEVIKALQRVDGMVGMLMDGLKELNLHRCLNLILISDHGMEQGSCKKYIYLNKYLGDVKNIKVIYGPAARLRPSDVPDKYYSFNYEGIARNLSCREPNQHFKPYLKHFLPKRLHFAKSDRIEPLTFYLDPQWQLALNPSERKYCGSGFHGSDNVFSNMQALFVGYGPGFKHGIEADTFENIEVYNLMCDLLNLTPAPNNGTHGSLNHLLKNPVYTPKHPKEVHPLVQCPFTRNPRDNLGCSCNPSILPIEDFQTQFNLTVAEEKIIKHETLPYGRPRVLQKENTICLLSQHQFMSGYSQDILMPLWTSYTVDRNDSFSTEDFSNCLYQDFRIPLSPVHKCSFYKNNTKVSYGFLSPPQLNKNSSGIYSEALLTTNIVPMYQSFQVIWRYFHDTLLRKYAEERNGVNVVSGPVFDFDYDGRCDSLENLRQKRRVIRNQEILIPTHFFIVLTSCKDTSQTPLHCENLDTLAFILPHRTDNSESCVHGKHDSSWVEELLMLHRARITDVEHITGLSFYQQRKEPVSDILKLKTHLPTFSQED
Format: biochemical
Method: ENPP1 hydrolyzes nucleotides or nucleotide derivatives to produce nucleoside-5′-monophosphate and pyrophosphate. In addition, ENPP1 hydrolyzes 2′,3′-cGAMP to produce 5′-adenosine monophosphate (AMP) and 5′-guanosine monophosphate (GMP). AMP produced from the reaction is measured using the AMP-Glo® kit (Promega). The AMP-Glo® kit contains two reagents. The first reagent terminates the AMP-producing enzymatic reaction, removes ATP and converts the produced AMP into ADP. The second reagent converts ADP into ATP which is used to generate luminescence in the luciferase reaction. The amount of luminescence measured is proportional to the amount of AMP produced by ENPP1.
The final reaction solution contains 50 mM Tris (pH 8.5) buffer, 250 mM NaCl, 0.5 mM CaCl2), 1 μM ZnCl2, 5% glycerol and 1% DMSO. Serially diluted ENPP1 inhibitors (typically in the range of 10 μM to 0.5 nM) were pre-stored with human recombinant ENPP1 enzymes (R & D systems) at 3 ng/reaction and room temperature (RT) for 5 to 10 minutes. The reaction was initiated by addition of cGAMP (at a final concentration of 5 μM) and reacted at 37° C. for 90 minutes. At the end of the reaction, 10 μl of the AMP-Glo first reagent was added to stop the reaction and the result was stored at room temperature for 1 hour. After storage, 20 μl of an AMP detection solution (a mixture of AMP-Glo II reagent and Kinase-Glo at a ratio of 1:100) was added and stored at room temperature for 1 hour. Luminescence signals were measured using a Victor® plate reader (Perkin Elmer). The maximal activity control (containing enzymes and substrates in the presence of 1% DMSO; MAX) and the minimal activity control (containing substrates and 1% DMSO; MIN) were evaluated simultaneously. In each experiment, serially diluted reference ENPP1 inhibitors were tested as well. IC50, indicating % residual activity versus compound concentration was determined by fitting inhibition curves using the 3-parameter analysis of GraphPad Prism® software. Serially diluted samples of one compound were tested two or more times and an average IC50 of each compound was calculated.

Question: `COc1ccc2c(c1)nnn2-c1ccc(CCNS(N)(=O)=O)cc1` [Example 73, N-(4-(5-methoxy-1H-benzo[d][1,2,3]triazol-1-yl)phenethyl)sulfamide Hydrochloride] was tested. Which IC50 did it give?
Answer: Its IC50 is < 1000 nM.

Question: For `NS(=O)(=O)NCc1ccc(-n2nnc3cc(O)ccc32)c(F)c1` [Example 74, N-(3-fluoro-4-(5-hydroxy-1H-benzo[d][1,2,3]triazol-1-yl)benzyl)sulfamide], which IC50 is on record?
Answer: Its IC50 is < 1000 nM.

Question: How did the IC50 turn out when `Cc1ccc2c(c1)nnn2-c1ccc(CNS(N)(=O)=O)cc1F` [Example 75, N-(3-fluoro-4-(5-methyl-1H-benzo[d][1,2,3]triazol-1-yl)benzyl)sulfamide] was run?
Answer: The IC50 was > 10000 nM.

Question: `CCOc1ccc2c(c1)nnn2-c1ccc(CNS(N)(=O)=O)cc1F` [Example 76, N-(4-(5-ethoxy-1H-benzo[d][1,2,3]triazol-1-yl)-3-fluorobenzyl)sulfamide] was tested. Which IC50 did it give?
Answer: Its IC50 is > 10000 nM.

Question: `CC(C)Oc1ccc2c(c1)nnn2-c1ccc(CNS(N)(=O)=O)cc1F` [Example 77, N-(3-fluoro-4-(5-isopropoxy-1H-benzo[d][1,2,3]triazol-1-yl)benzyl)sulfamide] was tested. Which IC50 did it give?
Answer: The IC50 was > 10000 nM.

Question: For `COc1ccc2c(c1)nnn2-c1ccc(CNS(N)(=O)=O)nc1` [Example 78], which IC50 is on record?
Answer: The IC50 was < 1000 nM.

Question: For `COc1ccc2c(c1)nnn2-c1ccc(CNS(N)(=O)=O)cn1` [Example 79, (N-(6-(5-methoxy-1H-benzo[d][1,2,3]triazol-1-yl)pyridin-3-yl)methyl)sulfamide], which IC50 is on record?
Answer: The IC50 was > 10000 nM.

Question: For `COc1ccc2c(c1)nnn2-c1ccc(CN(C)S(N)(=O)=O)cc1` [Example 80], which IC50 is on record?
Answer: The IC50 was < 1000 nM.

Question: For `COc1ccc2c(c1)nnn2-c1ccc(CN(C)S(N)(=O)=O)cc1F` [Example 81, N-(3-fluoro-4-(5-methoxy-1H-benzo[d][1,2,3]triazol-1-yl)benzyl)-N-methylsulfamide], which IC50 is on record?
Answer: The IC50 was < 1000 nM.

Question: How did the IC50 turn out when `COc1ccc2c(c1)nnn2-c1ccc(CN(C2CC2)S(N)(=O)=O)cc1` [Example 82, N-cyclopropyl-N-(4-(5-methoxy-1H-benzo[d][1,2,3]triazol-1-yl)benzyl)sulfamide] was run?
Answer: Its IC50 is < 1000 nM.

Question: For `COc1ccc2c(c1)nnn2-c1ccc([C@H](C)NS(N)(=O)=O)cc1` [Example 83, (S)—N-(1-(4-(5-methoxy-1H-benzo[d][1,2,3]triazol-1-yl)phenyl)ethyl)sulfamide], which IC50 is on record?
Answer: Its IC50 is < 1000 nM.

Question: How did the IC50 turn out when `NS(=O)(=O)NCc1ccc(-n2nnc3cc(C(F)(F)F)ccc32)cc1` [Example 84] was run?
Answer: Its IC50 is > 10000 nM.

Question: How did the IC50 turn out when `NS(=O)(=O)NCc1ccc(-n2nnc3cc(C(F)(F)F)ccc32)c(F)c1` [Example 85] was run?
Answer: Its IC50 is > 10000 nM.

Question: For `NS(=O)(=O)NCc1ccc(-n2nnc3cc(OCF)ccc32)c(F)c1` [Example 88], which IC50 is on record?
Answer: Its IC50 is > 10000 nM.

Question: How did the IC50 turn out when `NS(=O)(=O)NCc1ccc(-n2nnc3cc(OC(F)(F)F)ccc32)cc1` [Example 89] was run?
Answer: Its IC50 is > 10000 nM.

Question: `NS(=O)(=O)NCc1ccc(-n2nnc3cc(OC(F)(F)F)ccc32)c(F)c1` [Example 90] was tested. Which IC50 did it give?
Answer: Its IC50 is > 10000 nM.

Question: With `NS(=O)(=O)NCc1ccc(-n2nnc3cc(OC(F)F)ccc32)c(F)c1` [Example 91] as the molecule, how does the IC50 read?
Answer: The IC50 was < 1000 nM.

Question: For `COc1cc2nnn(-c3ccc(CNS(N)(=O)=O)cc3)c2cc1F` [Example 92, N-(4-(6-fluoro-5-methoxy-1H-benzo[d][1,2,3]triazol-1-yl)benzyl)sulfamide], which IC50 is on record?
Answer: The IC50 was < 1000 nM.

Question: For `COc1cc2nnn(-c3ccc(CNS(N)(=O)=O)cc3F)c2cc1F` [Example 93, N-(3-fluoro-4-(6-fluoro-5-methoxy-1H-benzo[d][1,2,3]triazol-1-yl)benzyl)sulfamide], which IC50 is on record?
Answer: The IC50 was < 1000 nM.

Question: How did the IC50 turn out when `COc1ccc2c(c1)nnn2-c1ccc2c(c1)CN(S(N)(=O)=O)C2` [Example 94, 5-(5-methoxy-1H-benzo[d][1,2,3]triazol-1-yl)isoindoline-2-sulfonamide] was run?
Answer: The IC50 was < 1000 nM.

Question: For `COc1ccc2c(c1)nnn2-c1ccc2c(c1)CC(NS(N)(=O)=O)C2` (stereo not drawn) [Example 95], which IC50 is on record?
Answer: The IC50 was < 1000 nM.

Question: How did the IC50 turn out when `COc1ccc2c(c1)nnn2-c1ccc2c(c1)CCN(S(N)(=O)=O)C2` [Example 96, 6-(5-methoxy-1H-benzo[d][1,2,3]triazol-1-yl)-3,4-dihydroisoquinoline-2(1H)sulfonamide] was run?
Answer: The IC50 was < 1000 nM.

Question: With `COc1ccc2c(c1)nnn2-c1ccc2c(c1)CN(S(N)(=O)=O)CC2` [Example 97, 7-(5-methoxy-1H-benzo[d][1,2,3]triazol-1-yl)-3,4-dihydroisoquinoline-2(1H)sulfonamide] as the molecule, how does the IC50 read?
Answer: Its IC50 is < 1000 nM.

Question: Which IC50 does the source give for `COc1ccc2c(c1)nnn2-c1ccc2c(c1)CN(S(N)(=O)=O)CCC2` [Example 98, 8-(5-methoxy-1H-benzo[d][1,2,3]triazol-1-yl)-1,3,4,5-tetrahydro-2H-benzo[c]azepine-2-sulfonamide] here?
Answer: The IC50 was > 10000 nM.

Question: How did the IC50 turn out when `COc1ccc2c(c1)nnn2-c1cc2c(cc1F)CN(S(N)(=O)=O)CC2` [Example 101, 7-fluoro-6-(5-methoxy-1H-benzo[d][1,2,3]triazol-1-yl)-3,4-dihydroisoquinoline-2(1H)-sulfonamide] was run?
Answer: The IC50 was < 1000 nM.

Question: `COc1cc2nnn(-c3ccc4c(c3)CN(S(N)(=O)=O)C4)c2cc1OC` [Example 102, 5-(5,6-dimethoxy-1H-benzo[d][1,2,3]triazol-1-yl)-isoindoline-2-sulfonamide] was tested. Which IC50 did it give?
Answer: The IC50 was < 1000 nM.

Question: Which IC50 does the source give for `COc1cc2nnn(-c3ccc4c(c3)CC(NS(N)(=O)=O)C4)c2cc1OC` (stereo not drawn) [Example 103, N-(5-(5,6-dimethoxy-1H-benzo[d][1,2,3]triazol-1-yl)-dihydro-1H-inden-2-yl)sulfamide] here?
Answer: Its IC50 is < 1000 nM.

Question: `COc1ccc2c(c1)nnn2Cc1ccc(NS(N)(=O)=O)cc1` [Example 104, N-(4-((5-methoxy-1H-benzo[d][1,2,3]triazol-1-yl)methyl)phenyl)sulfamide Hydrochloride] was tested. Which IC50 did it give?
Answer: Its IC50 is 1000 to 10000 nM.

Question: Which IC50 does the source give for `COc1ccc2c(c1)nnn2Cc1ccc(CNS(N)(=O)=O)cc1` [Example 105, N-(4-((5-methoxy-1H-benzo[d][1,2,3]triazol-1-yl)methyl)benzyl)sulfamide Hydrochloride] here?
Answer: Its IC50 is > 10000 nM.

Question: Which IC50 does the source give for `COc1ccc2c(c1)nnn2-c1ccc(CNS(N)(=O)=O)s1` [Example 106, N-((5-(5-methoxy-1H-benzo[d][1,2,3]triazol-1-yl)thiophen-2-yl)methyl)sulfamide] here?
Answer: Its IC50 is > 10000 nM.

Question: Which IC50 does the source give for `COc1ccc2nn(Cc3ccc(NS(N)(=O)=O)cc3)nc2c1` [Example 109, Hydrochloride] here?
Answer: The IC50 was 1000 to 10000 nM.

Question: How did the IC50 turn out when `COc1ccc2nn(Cc3ccc(CNS(N)(=O)=O)cc3)nc2c1` [Example 110, N-(4-((5-methoxy-2H-benzo[d][1,2,3]triazole-2-yl)benzyl)sulfamide Hydrochloride] was run?
Answer: Its IC50 is 1000 to 10000 nM.

Question: How did the IC50 turn out when `COc1ccc2c(c1)nnn2C1CCN(CCS(=O)(=O)F)CC1` [Example 111, 2-(4-(5-methoxy-1H-benzo[d][1,2,3]triazol-1-yl)piperidin-1-yl)ethane-1-sulfonyl Fluoride] was run?
Answer: Its IC50 is > 10000 nM.

Question: For `COc1ccc2c(c1)nnn2-c1ccc(CNS(C)(=O)=O)cc1F` [Example 112, N-(3-fluoro-4-(5-methoxy-1H-benzo[d][1,2,3]triazol-1-yl)benzyl)methanesulfonamide], which IC50 is on record?
Answer: The IC50 was > 10000 nM.

Question: With `CCS(=O)(=O)NCc1ccc(-n2nnc3cc(OC)ccc32)c(F)c1` [Example 113, N-(3-fluoro-4-(5-methoxy-1H-benzo[d][1,2,3]triazol-1-yl)benzyl)ethanesulfonamide] as the molecule, how does the IC50 read?
Answer: Its IC50 is > 10000 nM.

Question: Which IC50 does the source give for `COc1ccc2c(c1)nnn2-c1ccc(CNS(=O)(=O)c2ccc(C)cc2)cc1F` [Example 114, N-(3-fluoro-4-(5-methoxy-1H-benzo[d][1,2,3]triazol-1-yl)benzyl)-4-methylbenzenesulfonamide] here?
Answer: The IC50 was > 10000 nM.
